Experimental data taken from ChEMBL document CHEMBL1201862, “PubChem BioAssay data set” (2004).
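Exposure lasted 48 hours, with cells grown in 96-well plates and compounds tested at five concentrations. GI50: concentration for 50% inhibition of growth.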 Active and inactive are the calls of the source. Rule as the data show it: active = GI50 up to about 1.1 µM and inactive = higher.

Key:
Experiment in all cases: growth of human tumour cells (NCI), 48 h
LXFL 529 = tested on: LXFL 529
OVCAR-5 = tested on: OVCAR-5
CAKI-1 = tested on: CAKI-1
SF-295 = tested on: SF-295
EKVX = tested on: EKVX
A498 = tested on: A498
RXF 393 = tested on: RXF 393
MOLT-4 = tested on: MOLT-4
HOP-18 = tested on: HOP-18
SR = tested on: SR
OVCAR-8 = tested on: OVCAR-8
KM12 = tested on: KM12
HOP-62 = tested on: HOP-62
TK-10 = tested on: TK-10
NCI-H460 = tested on: NCI-H460
OVCAR-3 = tested on: OVCAR-3
DU-145 = tested on: DU-145
MDA-MB-231 = tested on: MDA-MB-231
PC-3 = tested on: PC-3
NCI/ADR-RES = tested on: NCI/ADR-RES

Row | Compound | GI50 (LXFL 529) | GI50 (OVCAR-5) | GI50 (CAKI-1) | GI50 (SF-295) | GI50 (EKVX) | GI50 (A498) | GI50 (RXF 393) | GI50 (MOLT-4) | GI50 (HOP-18) | GI50 (SR) | GI50 (OVCAR-8) | GI50 (KM12) | GI50 (HOP-62) | GI50 (TK-10) | GI50 (NCI-H460) | GI50 (OVCAR-3) | GI50 (DU-145) | GI50 (MDA-MB-231) | GI50 (PC-3) | GI50 (NCI/ADR-RES)
1 | CC(C)(C)C1(O)Cc2ccccc2C(=O)O1 (stereo not given) | > 100 µM (inactive) | > 100 µM (inactive) | > 100 µM (inactive) | > 100 µM (inactive) | > 100 µM (inactive) | > 100 µM (inactive) | > 100 µM (inactive) | > 100 µM (inactive) | > 100 µM (inactive) | > 100 µM (inactive) | > 100 µM (inactive) | > 100 µM (inactive) | > 100 µM (inactive) | > 100 µM (inactive) | > 100 µM (inactive) | > 100 µM (inactive) | – | – | – | –
2 | C(/C=C/N1CCCC1)=C\c1nc(N2CCCC2)c2ccccc2n1 | 14.7 µM (inactive) | 15.6 µM (inactive) | 19.7 µM (inactive) | 20.4 µM (inactive) | 20.1 µM (inactive) | > 100 µM (inactive) | – | 17.3 µM (inactive) | 16.5 µM (inactive) | 13.6 µM (inactive) | 34.1 µM (inactive) | 17.1 µM (inactive) | 19.5 µM (inactive) | 41 µM (inactive) | 18.2 µM (inactive) | 15.7 µM (inactive) | – | – | – | –
3 | COC(=O)c1ccc2c(c1)C(NC(C)=O)CCc1cc(OC)c(OC)c(OC)c1-2 (stereo not given) | < 0.0154 µM (active) | 0.112 µM (active) | 0.0177 µM (active) | 0.0117 µM (active) | 4.19 µM (inactive) | 0.0133 µM (active) | 0.0139 µM (active) | 0.0151 µM (active) | > 40.4 µM (inactive) | 0.0123 µM (active) | 0.0154 µM (active) | < 0.0115 µM (active) | 0.0158 µM (active) | 16.9 µM (inactive) | 0.0259 µM (active) | < 0.0116 µM (active) | 0.014 µM (active) | < 0.02 µM (active) | < 0.0127 µM (active) | 0.0416 µM (active)
4 | C/C=C/C=N/N(c1nnc(-c2ccccc2)c(-c2ccccc2)n1)S(=O)(=O)c1ccc(C)cc1 | 7.21 µM (inactive) | 19.3 µM (inactive) | 16.9 µM (inactive) | 11 µM (inactive) | 17.8 µM (inactive) | 14.3 µM (inactive) | – | 3.18 µM (inactive) | 14.2 µM (inactive) | 3.48 µM (inactive) | 5.53 µM (inactive) | 9.06 µM (inactive) | – | 14.9 µM (inactive) | 11.1 µM (inactive) | 12.6 µM (inactive) | – | – | – | –
5 | COc1ccc(C2(Cl)C(Cl)(C(F)(F)F)C2(Cl)C(F)(F)F)cc1 (stereo not given) | 13.9 µM (inactive) | 14.1 µM (inactive) | 16 µM (inactive) | 14.8 µM (inactive) | 17.5 µM (inactive) | – | 12.1 µM (inactive) | 2.62 µM (inactive) | 15.3 µM (inactive) | 10.2 µM (inactive) | 12.6 µM (inactive) | 14 µM (inactive) | 18.4 µM (inactive) | 18.1 µM (inactive) | 15.9 µM (inactive) | 15.5 µM (inactive) | – | – | – | –
6 | CCOC(=O)c1c(C(F)(F)F)oc2c1ccc1nc3nonc3nc12 | 14 µM (inactive) | 17.2 µM (inactive) | 14 µM (inactive) | 27 µM (inactive) | 17.9 µM (inactive) | 16.7 µM (inactive) | 11.9 µM (inactive) | 2.54 µM (inactive) | 11 µM (inactive) | 3.58 µM (inactive) | 16.3 µM (inactive) | 19.3 µM (inactive) | 13.8 µM (inactive) | 19.4 µM (inactive) | 23.3 µM (inactive) | 16.5 µM (inactive) | – | – | – | –
7 | CC(=O)OC1CC(n2cc(F)c(=O)[nH]c2=O)OC1CO (stereo not given) | 0.575 µM (active) | > 46.7 µM (inactive) | 0.818 µM (active) | 0.209 µM (active) | 20 µM (inactive) | 0.0693 µM (active) | 22.2 µM (inactive) | 1.08 µM (active) | 6.61 µM (inactive) | 0.604 µM (active) | 0.668 µM (active) | > 93.3 µM (inactive) | 0.152 µM (active) | 15.9 µM (inactive) | 0.0177 µM (active) | 13.5 µM (inactive) | 1.15 µM (inactive) | > 55.2 µM (inactive) | 16.9 µM (inactive) | 1.93 µM (inactive)
8 | CC(C)=C1CCC(CN(C)C)C1=O (stereo not given) | 12.8 µM (inactive) | > 100 µM (inactive) | – | > 100 µM (inactive) | 17.7 µM (inactive) | 19.6 µM (inactive) | 18.6 µM (inactive) | 12.1 µM (inactive) | 22.1 µM (inactive) | 12.4 µM (inactive) | 22.3 µM (inactive) | 29.7 µM (inactive) | – | 17.1 µM (inactive) | > 100 µM (inactive) | 17.6 µM (inactive) | – | – | – | –
9 | CCCCC1CC(c2cccc([N+](=O)[O-])c2)=NO1 (stereo not given) | 56.5 µM (inactive) | > 100 µM (inactive) | 63.5 µM (inactive) | 97.7 µM (inactive) | 58.2 µM (inactive) | 49.2 µM (inactive) | – | 36.4 µM (inactive) | 80.4 µM (inactive) | > 100 µM (inactive) | 70.3 µM (inactive) | > 100 µM (inactive) | > 100 µM (inactive) | > 100 µM (inactive) | 75.5 µM (inactive) | 76.2 µM (inactive) | – | – | – | –
10 | COc1nc(NC2OCC(OC(C)=O)C(OC(C)=O)C2OC(C)=O)c(/N=C\C=N\c2c(NC3OCC(OC(C)=O)C(OC(C)=O)C3OC(C)=O)nc(OC)n(C)c2=O)c(=O)n1C (stereo not given) | > 100 µM (inactive) | > 100 µM (inactive) | – | > 100 µM (inactive) | > 100 µM (inactive) | > 100 µM (inactive) | > 100 µM (inactive) | – | > 100 µM (inactive) | > 100 µM (inactive) | > 100 µM (inactive) | > 100 µM (inactive) | > 100 µM (inactive) | > 100 µM (inactive) | > 100 µM (inactive) | > 100 µM (inactive) | – | – | – | –
11 | O=C(/C=C/c1ccccc1O)c1cccnc1 | > 100 µM (inactive) | > 100 µM (inactive) | > 100 µM (inactive) | > 100 µM (inactive) | > 100 µM (inactive) | > 100 µM (inactive) | > 100 µM (inactive) | > 100 µM (inactive) | > 100 µM (inactive) | > 100 µM (inactive) | > 100 µM (inactive) | > 100 µM (inactive) | > 100 µM (inactive) | > 100 µM (inactive) | > 100 µM (inactive) | > 100 µM (inactive) | – | – | – | –
12 | O=S(=O)(O)c1ccc(-c2c3nc(c(-c4ccc(S(=O)(=O)O)cc4)c4ccc([nH]4)c(-c4ccc(S(=O)(=O)O)cc4)c4nc(c(-c5ccc(S(=O)(=O)O)cc5)c5ccc2[nH]5)C=C4)C=C3)cc1 | > 100 µM (inactive) | > 100 µM (inactive) | > 100 µM (inactive) | 42.7 µM (inactive) | > 100 µM (inactive) | 31 µM (inactive) | 19.9 µM (inactive) | > 100 µM (inactive) | > 100 µM (inactive) | – | > 100 µM (inactive) | > 100 µM (inactive) | > 100 µM (inactive) | > 100 µM (inactive) | > 100 µM (inactive) | > 100 µM (inactive) | – | – | – | –
13 | CCc1cccc(C)c1NC(=O)CC1Sc2ccccc2NC1=O (stereo not given) | 56.8 µM (inactive) | 42.4 µM (inactive) | 60.5 µM (inactive) | 95.7 µM (inactive) | 91.8 µM (inactive) | 28.6 µM (inactive) | 16.9 µM (inactive) | 29.2 µM (inactive) | 19.5 µM (inactive) | – | 65.5 µM (inactive) | 34.9 µM (inactive) | 15.1 µM (inactive) | 93.1 µM (inactive) | 34.4 µM (inactive) | 32.6 µM (inactive) | – | – | – | –
14 | COc1ccc(C(C)c2cc3c(cc2OC)OCO3)cc1 (stereo not given) | 0.125 µM (active) | 3.48 µM (inactive) | 0.107 µM (active) | 0.0611 µM (active) | 17.4 µM (inactive) | 0.646 µM (active) | 0.264 µM (active) | 0.264 µM (active) | 0.371 µM (active) | 0.881 µM (active) | 0.269 µM (active) | 0.119 µM (active) | 0.124 µM (active) | 8.95 µM (inactive) | 0.122 µM (active) | 0.107 µM (active) | 0.231 µM (active) | 0.112 µM (active) | 0.0715 µM (active) | 0.0268 µM (active)
15 | Oc1nc(S)nc2c1CCCN2 | > 100 µM (inactive) | > 100 µM (inactive) | > 100 µM (inactive) | > 100 µM (inactive) | > 100 µM (inactive) | – | > 100 µM (inactive) | > 100 µM (inactive) | > 100 µM (inactive) | > 100 µM (inactive) | > 100 µM (inactive) | > 100 µM (inactive) | > 100 µM (inactive) | > 100 µM (inactive) | – | > 100 µM (inactive) | – | – | – | –
16 | CC(C)=CCCc1c(C)ccc2c1C(=O)C(=O)C(C(C)C)=C2 | 3.62 µM (inactive) | – | 4.16 µM (inactive) | > 22 µM (inactive) | > 22 µM (inactive) | > 22 µM (inactive) | 3.68 µM (inactive) | 1.36 µM (inactive) | 4.02 µM (inactive) | 3.5 µM (inactive) | 3.85 µM (inactive) | > 22 µM (inactive) | – | 4.41 µM (inactive) | 10.7 µM (inactive) | 3.76 µM (inactive) | – | – | – | –
17 | CC(=O)Nc1ccc(C(=O)NN2C(=O)C(Cl)C2c2ccc(Cl)cc2)cc1 (stereo not given) | 50.6 µM (inactive) | > 74.3 µM (inactive) | – | 20.6 µM (inactive) | > 100 µM (inactive) | – | – | > 100 µM (inactive) | 64.4 µM (inactive) | > 100 µM (inactive) | 37 µM (inactive) | > 100 µM (inactive) | 22.2 µM (inactive) | > 100 µM (inactive) | > 90.4 µM (inactive) | 18.8 µM (inactive) | > 100 µM (inactive) | 22.1 µM (inactive) | > 100 µM (inactive) | > 100 µM (inactive)
